In patent publication US20230031406A1, “COMPOUNDS AND COMPOSITIONS FOR TREATING CONDITIONS ASSOCIATED WITH NLRP ACTIVITY” (Novartis AG, priority 2018, published 2023):
pIC50: −log10 of the molar value. Read-outs that look alike come from different tables or passages of the source. Each block holds one compound with its values, some of them ahead of it.

Tested on: PMA-differentiated THP-1 cells
Assay: hTHP-1 assay containing 10% fetal bovine serum (IL-1β production, Tables B5 and B6)
Type: cell-based, human
Experimental: The following protocol is suitable for testing the activity of the compounds disclosed herein. Procedure 1: IL-1β Production in PMA-Differentiated THP-1 Cells Stimulated with Gramicidin.
THP-1 cells were purchased from the American Type Culture Collection and sub-cultured according to instructions from the supplier. Cells were cultured in complete RPMI 1640 (containing 10% heat inactivated FBS, penicillin (100 units/ml) and streptomycin (100 μg/ml)), and maintained in log phase prior to experimental setup. Prior to the experiment, compounds were dissolved in dimethyl sulfoxide (DMSO) to generate a 30 mM stock. The compound stock was first pre-diluted in DMSO to 3, 0.34, 0.042 and 0.0083 mM intermediate concentrations and subsequently spotted using Echo550 liquid handler into an empty 384-well assay plate to achieve desired final concentration (e.g. 100, 33, 11, 3.7, 1.2, 0.41, 0.14, 0.046, 0.015, 0.0051, 0.0017 μM). DMSO was backfilled in the plate to achieve a final DMSO assay concentration of 0.37%. The plate was then sealed and stored at room temperature until required.
THP-1 cells were treated with PMA (Phorbol 12-myristate 13-acetate) (20 ng/ml) for 16-18 hours. On the day of the experiment the media was removed and adherent cells were detached with trypsin for 5 minutes. […] The cells were plated in the 384-well assay plate containing the spotted compounds at a density of 50,000 cells/well (final assay volume 50 μl). Cells were incubated with compounds for 1 hour and then stimulated with gramicidin (5 μM) (Enzo) for 2 hours. Plates were then centrifuged at 340 g for 5 min. Cell free supernatant (40 μL) was collected using a 96—CHannel PlateMaster (Gilson) and the production of IL-1β was evaluated by HTRF (cisbio). The plates were incubated for 18 h at 4° C. and read using the preset HTRF program (donor emission at 620 nm, acceptor emission at 668 nm) of the SpectraMax i3x spectrophotometer (Molecular Devices, software SoftMax 6). A vehicle only control and a dose titration of CRID3 (100-0.0017 μM) were run concurrently with each experiment.
Procedure 2: IL-1β Production in PMA-Differentiated THP-1 Cells Stimulated with Gramicidin.
THP-1 cells were purchased from the American Type Culture Collection and sub-cultured according to instructions from the supplier. Prior to experiments, cells were cultured in complete RPMI 1640 (containing 10% heat inactivated FBS, penicillin (100 units/ml) and streptomycin (100 μg/ml)), and maintained in log phase prior to experimental setup. Prior to the experiment THP-1 were treated with PMA (Phorbol 12-myristate 13-acetate) (20 ng/ml) for 16-18 hours. Compounds were dissolved in dimethyl sulfoxide (DMSO) to generate a 30mM stock. On the day of the experiment the media was removed and adherent cells were detached with trypsin for 5 minutes. […] The cells were plated in a 384-well plate at a density of 50,000 cells/well (final assay volume […]). Compounds were first dissolved in assay medium to obtain a 5× top concentration of 500 μM. 10 step dilutions (1:3) were then undertaken in assay medium containing 1.67% DMSO. 5× compound solutions were added to the culture medium to achieve desired final concentration (e.g. 100, 33, 11, 3.7, 1.2, 0.41, 0.14, 0.046, 0.015, 0.0051, 0.0017 μM). Final DMSO concentration was at 0.37%. Cells were incubated with compounds for 1 hour and then stimulated with gramicidin (5 μM) (Enzo) for 2 hours. Plates were then centrifuged at 340 g for 5 min. Cell free supernatant (40 μL) was collected using a 96—CHannel PlateMaster (Gilson) and the production of IL-1β was evaluated by HTRF (cisbio). A vehicle only control and a dose titration of CRID3 (100-0.0017 μM) were run concurrently with each experiment.
Tables B1, B2, B3, and B4 show the biological activity of compounds in hTHP-1 assay containing 2% fetal bovine serum. […] Key: <0.008 μM=“++++++”; ≥0.008 and <0.04 μM=“+++++”; >0.04 and <0.2 μM=“++++”; ≥0.2 and <1 μM=“+++”; ≥1 and <5 μM=“++”; ≥5 and <30 μM=“+”. […]

SMILES: Cc1nc2c(c(NC(=O)N=S(N)(=O)c3scc(C(C)(C)O)c3F)c1-c1ccccc1)CCC2 (single isomer, unassigned) [Compound 1110b, (R) or (S)-3-fluoro-4-(2-hydroxypropan-2-yl)-N′-((2-methyl-3-phenyl-6,7-dihydro-5H-cyclopenta[b]pyridin-4-yl)carbamoyl)thiophene-2-sulfonimidamide]
pIC50 (read-out: hTHP-1 IC50 in 10% FBS, hTHP-1 assay containing 10% fetal bovine serum, Table B5, listed as 845): > 8.10

SMILES: Cc1c(C(F)(F)F)nc2c(c1NC(=O)N=S(N)(=O)c1scc(C(C)(C)O)c1F)CCC2 (single isomer, unassigned) [Compound 1108a, (R) or (S)-3-fluoro-4-(2-hydroxypropan-2-yl)-N′-((3-methyl-2-(trifluoromethyl)-6,7-dihydro-5H-cyclopenta[b]pyridin-4-yl)carbamoyl)thiophene-2-sulfonimidamide]
pIC50 (read-out: hTHP-1 IC50 in 10% FBS, hTHP-1 assay containing 10% fetal bovine serum, Table B5, listed as 840): 6.70 to 7.40

SMILES: CC(C)n1cc(F)c(S(N)(=O)=NC(=O)Nc2c3c(nc(C(F)(F)F)c2C2CC2)CCC3)n1 (single isomer, unassigned) [Compound 1104b, (S) or (R)-N′-((3-cyclopropyl-2-(trifluoromethyl)-6,7-dihydro-5H-cyclopenta[b]pyridin-4-yl)carbamoyl)-4-fluoro-1-isopropyl-1H-pyrazole-3-sulfonimidamide]
pIC50 (read-out: hTHP-1 IC50 in 10% FBS, hTHP-1 assay containing 10% fetal bovine serum, Table B5, listed as 827): 5.30 to 6.00

SMILES: CC(C)(O)c1csc(S(N)(=O)=NC(=O)Nc2c3c(nc(C4CC4)c2C2CC2)CCC3)c1F (single isomer, unassigned) [Compound 1106a, (R) or (S)-N′-((2,3-dicyclopropyl-6,7-dihydro-5H-cyclopenta[b]pyridin-4-yl)carbamoyl)-3-fluoro-4-(2-hydroxypropan-2-yl)thiophene-2-sulfonimidamide]
pIC50 (read-out: hTHP-1 IC50 in 10% FBS, hTHP-1 assay containing 10% fetal bovine serum, Table B5, listed as 830): 6.70 to 7.40

SMILES: C[C@@H]1CCc2c1nc1c(c2NC(=O)N=S(N)(=O)c2scc(C(C)(C)O)c2F)CCC1 (single isomer, unassigned) [Compound 1109a, (R) or (S)-3-fluoro-4-(2-hydroxypropan-2-yl)-N′-(((R)-3-methyl-1,2,3,5,6,7-hexahydrodicyclopenta [b,e]pyridin-8-yl)carbamoyl) thiophene-2-sulfonimidamide]
pIC50 (read-out: hTHP-1 IC50 in 10% FBS, hTHP-1 assay containing 10% fetal bovine serum, Table B5, listed as 842): 7.40 to 8.10

More lines, now with the values ahead:

pIC50 (read-out: hTHP-1 IC50 in 10% FBS, hTHP-1 assay containing 10% fetal bovine serum, Table B5, listed as 846): 6.00 to 6.70
SMILES: CC(F)(F)n1cc(F)c(S(N)(=O)=NC(=O)Nc2c3c(nc4c2CCC4)CCC3)n1 (single isomer, unassigned) [Compound 1115a, (R) or (S)-1-(1,1-difluoroethyl)-4-fluoro-N′-((l,2,3,5,6,7-hexa-hydrodicyclopenta[b,e]pyridin-8-yl)carbamoyl)-1H-pyrazole-3-sulfonimidamide]

pIC50 (read-out: hTHP-1 IC50 in 10% FBS, hTHP-1 assay containing 10% fetal bovine serum, Table B6): 5.30 to 6.00
SMILES: Cc1c(C(F)(F)F)nc2c(c1NC(=O)N=S(N)(=O)c1nn(C3CC3)cc1F)CCC2 (single isomer, unassigned) [Example 870, (S) or (R)-1-cyclopropyl-4-fluoro-N′-((3-methyl-2-(trifluoromethyl)-6,7-dihydro-5H-cyclopenta[b]pyridin-4-yl)carbamoyl)-1H-pyrazole-3-sulfonimidamide]

pIC50 (read-out: hTHP-1 IC50 in 10% FBS, hTHP-1 assay containing 10% fetal bovine serum, Table B5, listed as 836): 6.00 to 6.70
SMILES: CCn1cc(F)c(S(N)(=O)=NC(=O)Nc2c3c(nc(C(F)(F)F)c2-c2ccc(F)c(F)c2)CCC3)n1 (single isomer, unassigned) [Compound 1113a, (S) or (R)-N′-((3-(3,4-difluorophenyl)-2-(trifluoromethyl)-6,7-dihydro-5H-cyclopenta[b]pyridin-4-yl)carbamoyl)-1-ethyl-4-fluoro-1H-pyrazole-3-sulfonimidamide]

pIC50 (Homo sapiens, THP-1, read-out: hTHP-1 IC50 in 10% FBS, hTHP-1 assay containing 10% fetal bovine serum, Table B6): 6.70 to 7.40
SMILES: NS(=O)(=NC(=O)Nc1c2c(nc3c1CCC31CC1)CCC2)c1ccn(C2CC2)n1 (stereo not drawn) [Example 861, 1-Cyclopropyl-N′-((1′,5′,6′,7′-tetrahydro-2′H-spiro[cyclopropane-1,3′-dicyclopenta[b,e]pyridin]-8′-yl)carbamoyl)-1H-pyrazole-3-sulfonimidamide]
